Assay [1] deals with T1, Protein farnesyltransferase (Homo sapiens, UniProt P49354+P49356). Nature of the assay: In vitro effective concentration against farnesyltransferase (FT). The assay is classed as protein-complex assay.
The target of assay [2] is T1, Protein farnesyltransferase. Nature of the assay: In vitro inhibitory activity against farnesyltransferase (FT). The assay is classed as protein-complex assay.
Assay [3] has as its target T2, Geranylgeranyl transferase type I (Homo sapiens, UniProt P49354+P53609). Nature of the assay: In vitro inhibitory activity against Geranylgeranyl transferase type I. The assay is classed as protein-complex assay.
The target of assay [4] is T1, Protein farnesyltransferase. Nature of the assay: In vitro effective concentration against farnesyltransferase (FT); NA= Not active. The assay is classed as protein-complex assay.
Assay [5] shares this target. Nature of the assay: In vitro inhibition of farnesyltransferase (FT) at 100 nM. The assay is classed as protein-complex assay.
Assay [6] has the same target.
Assay [7] concerns the target T2, Geranylgeranyl transferase type I. Nature of the assay: In vitro inhibition of Geranylgeranyl transferase type I; NA means Not active. The assay is classed as protein-complex assay.

Some results are limits rather than exact numbers.

In assay [1], `Cn1cncc1C(OCc1c(-c2cccc(OC(F)(F)F)c2)cc(C#N)c(=O)n1C)c1ccc(C#N)cc1` (stereo not drawn) showed an EC50 of 3.9 nM. In addition, the results for the IC50 in assay [2] and in assay [3] were 0.42 nM and 1050 nM, respectively.

`Cn1cncc1C(OCc1c(-c2cc(F)ccc2F)cc(C#N)c(=O)n1C)c1ccc(C#N)cc1` (stereo not drawn) registered an EC50 in assay [1] of 110 nM. The IC50 stood at 2.7 nM in assay [2] and 15000 nM in assay [3].

As to `Cn1cncc1C(OCc1c(-c2cccc(Cl)c2Cl)cc(C#N)c(=O)n1C)c1ccc(C#N)cc1` (stereo not drawn), the concentration giving a half-maximal response (EC50) entry in assay [4] is recorded as “Not Active”. Also, the IC50 came to 6.1 nM in assay [2] and 2500 nM in assay [3].

For the compound `Cn1cncc1C(OCc1c(-c2cccc(Cl)c2F)cc(C#N)c(=O)n1C)c1ccc(C#N)cc1` (stereo not drawn), the EC50 in assay [1] was 24 nM. Besides, the values for the IC50 in assay [2] and in assay [3] were 1.8 nM and 1500 nM, respectively.

`Cn1cncc1C(OCc1c(-c2ccc(OC(F)(F)F)cc2)cc(C#N)c(=O)n1C)c1ccc(C#N)cc1` (stereo not drawn): the EC50 in assay [1] worked out at 3.9 nM. Further, the results for the IC50 in assay [2] and in assay [3] were 0.73 nM and 1400 nM, respectively.

On to `Cn1cncc1C(OCc1c(-c2cccc(Cl)c2)cc(C#N)c(=O)n1C)c1ccc(C#N)c(I)c1` (stereo not drawn), for which the EC50 in assay [1] stood at 88 nM. Also, the IC50 in assay [2] is 0.75 nM; in assay [3], more than 1000 nM.

In turn, `Cn1cncc1C(OCc1c(-c2cc(Cl)cc(Cl)c2)cc(C#N)c(=O)n1C)c1ccc(C#N)c(Br)c1` (stereo not drawn) registered a 50% effective concentration (EC50) in assay [1] of more than 100 nM. The values for the IC50 in assay [2] and in assay [3] were 0.42 nM and 290 nM, respectively.

Take `Cn1cncc1C(OCc1[nH]c(=O)c(C#N)cc1-c1cccc(Cl)c1)c1ccc(C#N)cc1` (stereo not drawn): the EC50 in assay [1] is more than 100 nM. The figures for the IC50 in assay [2] and in assay [3] were 0.85 nM and 820 nM, respectively.

In turn, `CCOc1cccc(-c2cc(C#N)c(=O)n(C)c2COC(c2ccc(C#N)cc2)c2cncn2C)c1` (stereo not drawn) had an EC50 in assay [1] of 0.81 nM. Besides, the IC50 in assay [2] amounted to 0.67 nM; in assay [3], 1500 nM.

`Cn1cncc1C(OCc1c(-c2cc(Cl)cc(Cl)c2)cc(C#N)c(=O)n1C)c1ccc(C#N)cc1` (stereo not drawn) returned an EC50 in assay [1] of 6.8 nM. For the same compound, the IC50 amounted to 0.46 nM in assay [2] and 1700 nM in assay [3].

`Cc1ncc(C(OCc2c(-c3cccc(Cl)c3)cc(C#N)c(=O)n2C)c2ccc(C#N)cc2)n1C` (stereo not drawn) returned an inhibition in assay [5] of 75%. The figures for the half-inhibitory concentration (IC50) in assay [2] and in assay [3] were 5.3 nM and more than 900 nM, respectively.

Take `Cn1cncc1C(OCc1c(-c2ccc(OC(F)(F)F)cc2)cc(C#N)c(=O)n1C)c1ccc(C#N)c(-c2ccccc2Cl)c1` (stereo not drawn): the EC50 in assay [1] was more than 100 nM. Moreover, the values for the IC50 in assay [2] and in assay [3] were 3.9 nM and 110 nM, respectively.

As to `Cn1cncc1C(OCc1c(-c2ccc3c(c2)OC(F)(F)O3)cc(C#N)c(=O)n1C)c1ccc(C#N)cc1` (stereo not drawn), the 50% effective concentration (EC50) in assay [1] came to 19 nM. Also, the half-inhibitory concentration (IC50) worked out at 0.69 nM in assay [2] and 6200 nM in assay [3].

Take `COc1cccc(-c2cc(C#N)c(=O)n(C)c2COC(c2ccc(C#N)cc2)c2cncn2C)c1` (stereo not drawn): the EC50 in assay [1] is 4.7 nM. Besides, the IC50 in assay [2] is 0.41 nM; in assay [3], 3200 nM.

Compound `Cn1cncc1C(OCc1c(-c2cc(Cl)cc(Cl)c2)cc(C#N)c(=O)n1C)c1ccc(C#N)c(I)c1` (stereo not drawn) returned an EC50 in assay [1] of more than 100 nM. Moreover, the IC50 in assay [2] stood at 0.81 nM; in assay [3], 7500 nM.

`Cn1cncc1C(OCc1ccc(C#N)cn1)c1ccc(C#N)c(-c2cccc3ccccc23)c1` (stereo not drawn): the EC50 in assay [1] stood at 5.9 nM. The compound further gave an IC50 in assay [2] of 0.73 nM.

Compound `Cn1cncc1C(OCc1c(-c2ccc(Cl)c(Cl)c2)cc(C#N)c(=O)n1C)c1ccc(C#N)cc1` (stereo not drawn) came in with an EC50 in assay [1] of 86 nM. For the same compound, the IC50 in assay [2] came to 0.49 nM; in assay [3], 2300 nM.

On to `CCCn1c(COC(c2ccc(C#N)cc2)c2cncn2C)c(-c2cccc(Cl)c2)cc(C#N)c1=O` (stereo not drawn), for which, in assay [1], the EC50 amounted to 12 nM. Moreover, the IC50 in assay [2] came to 0.036 nM; in assay [3], 3000 nM.

In the case of `Cn1cncc1C(OCc1c(-c2ccc(OC(F)(F)F)cc2)cc(C#N)c(=O)n1C)c1ccc(C#N)c(Br)c1` (stereo not drawn), the concentration for a half-maximal effect (EC50) in assay [1] stood at 10 nM. Moreover, the IC50 in assay [2] worked out at 0.89 nM; in assay [3], 220 nM.

As to `Cn1cncc1C(OCc1c(-c2ccc(OC(F)(F)F)cc2)cc(C#N)c(=O)n1C)c1ccc(C#N)c(-c2cccc(Cl)c2)c1` (stereo not drawn), the EC50 in assay [1] was more than 100 nM. For the same compound, the values for the IC50 in assay [2] and in assay [3] were 1.3 nM and 30 nM, respectively.

Consider `Cn1cncc1C(OCc1c(-c2cccc(Cl)c2)cc(C#N)c(=O)n1CC1CC1)c1ccc(C#N)cc1` (stereo not drawn), for which the EC50 in assay [1] was 4.8 nM. Further, the results for the IC50 in assay [2] and in assay [3] were 0.5 nM and 2000 nM, respectively.

Turning to `Cn1cncc1C(OCc1c(-c2cccc(F)c2)cc(C#N)c(=O)n1C)c1ccc(C#N)cc1` (stereo not drawn), in assay [1], the EC50 turned out to be 11 nM. In addition, the results for the IC50 in assay [2] and in assay [3] were 2.1 nM and more than 10000 nM, respectively.

`Cn1c(COC(c2ccc(C#N)cc2)c2cncs2)c(-c2ccc(OC(F)(F)F)cc2)cc(C#N)c1=O` (stereo not drawn): in assay [4], the EC50 result is reported as “Not Active”.

As to `Cn1cncc1C(OCc1c(-c2cc(F)cc(Cl)c2)cc(C#N)c(=O)n1C)c1ccc(C#N)cc1` (stereo not drawn), in assay [1], the EC50 was 17 nM. In addition, the figures for the IC50 in assay [2] and in assay [3] were 0.7 nM and 1800 nM, respectively.

In assay [1], `Cn1cncc1C(OCc1c(-c2ccc3c(c2)OCO3)cc(C#N)c(=O)n1C)c1ccc(C#N)cc1` (stereo not drawn) showed an EC50 of 2.1 nM. Besides, the figures for the IC50 in assay [2] and in assay [3] were 0.42 nM and 3300 nM, respectively.

In assay [1], `Cn1cncc1C(OCc1c(-c2ccc(F)c(Cl)c2)cc(C#N)c(=O)n1C)c1ccc(C#N)cc1` (stereo not drawn) came in with an EC50 of 15 nM. In addition, the IC50 in assay [2] was determined as 1.1 nM; in assay [3] it was 1900 nM.

As to `Cn1cncc1C(OCc1c(-c2cccc(F)c2F)cc(C#N)c(=O)n1C)c1ccc(C#N)cc1` (stereo not drawn), the 50% effective concentration (EC50) entry in assay [4] was “Not Active”. Also, the results for the IC50 in assay [2] and in assay [3] were 6.3 nM and 3400 nM, respectively.

`Cn1cncc1C(OCc1c(-c2cccc(Cl)c2)cc(C#N)c(=O)n1C)c1ccc(C#N)c(Cl)c1` (stereo not drawn): the response in assay [1] was half-maximal at 24 nM (EC50). Besides, the IC50 in assay [2] turned out to be 0.97 nM; in assay [3], 890 nM.

Take `Cn1c(COC(c2ccc(C#N)cc2)c2cncs2)c(-c2cc(Cl)cc(Cl)c2)cc(C#N)c1=O` (stereo not drawn): the 50% effective concentration (EC50) in assay [1] was more than 100 nM. Besides, the results for the IC50 in assay [2] and in assay [3] were 1.9 nM and more than 10000 nM, respectively.

The compound `CCn1c(COC(c2ccc(C#N)cc2)c2cncn2C)c(-c2cccc(Cl)c2)cc(C#N)c1=O` (stereo not drawn) registered an EC50 in assay [1] of 2.9 nM. Also, the IC50 turned out to be 0.73 nM in assay [2] and 3300 nM in assay [3].

`Cn1cncc1C(OCc1c(-c2cc(Cl)cc(Cl)c2)cc(C#N)c(=O)n1C)c1ccc(C#N)c(Cl)c1` (stereo not drawn): the EC50 in assay [1] turned out to be 16 nM. For the same compound, the values for the IC50 in assay [2] and in assay [3] were 0.77 nM and 190 nM, respectively.

`Cn1cncc1C(OCc1c(-c2ccc(F)c(F)c2)cc(C#N)c(=O)n1C)c1ccc(C#N)cc1` (stereo not drawn) gave an EC50 in assay [1] of 10 nM. Further, the IC50 in assay [2] is 1.5 nM; in assay [3], 5500 nM.

For the compound `Cn1cncc1C(OCc1c(-c2cc(Cl)ccc2Cl)cc(C#N)c(=O)n1C)c1ccc(C#N)cc1` (stereo not drawn), the figures for the IC50 in assay [2] and in assay [3] were 1.6 nM and 2900 nM, respectively. This compound had an EC50 in assay [6] of 1.2 nM.

In assay [1], `Cn1cncc1C(OCc1c(-c2cccc(Cl)c2)cc(C#N)c(=O)n1C)c1ccc(C#N)c(-c2cccc(Cl)c2)c1` (stereo not drawn) registered an EC50 of 21 nM. In addition, the figures for the IC50 in assay [2] and in assay [3] were 1 nM and 94 nM, respectively.

With `Cn1cncc1C(OCc1c(-c2cc(F)cc(F)c2)cc(C#N)c(=O)n1C)c1ccc(C#N)cc1` (stereo not drawn), in assay [1], the EC50 was determined as 7.3 nM. Besides, the IC50 in assay [2] worked out at 0.84 nM; in assay [3], 12000 nM.

Turning to `Cn1cncc1C(OCc1c(-c2ccc(OC(F)(F)F)cc2)cc(C#N)c(=O)n1C)c1ccc(C#N)c(Cl)c1` (stereo not drawn), in assay [1], a half-maximal effect (EC50) was put at 15 nM. Also, the values for the half-maximal inhibitory concentration (IC50) in assay [2] and in assay [3] were 0.36 nM and 150 nM, respectively.

As for `Cn1cncc1C(OCc1c(-c2cccc(Cl)c2)cc(C#N)c(=O)n1C)c1ccc(C#N)c(Br)c1` (stereo not drawn), the 50% effective concentration (EC50) in assay [1] stood at 39 nM. The IC50 came out at 1.3 nM in assay [2] and 610 nM in assay [3].

For the compound `Cn1cncc1C(OCc1c(-c2ccc(OC(F)(F)F)cc2)cc(C#N)c(=O)n1C)c1ccc(C#N)c(-c2ccc(Cl)cc2)c1` (stereo not drawn), in assay [1], the EC50 was more than 100 nM. Further, the IC50 in assay [2] is 6.5 nM; in assay [3] it was 160 nM.

For the compound `Cn1cncc1C(OCc1c(-c2ccc(F)cc2F)cc(C#N)c(=O)n1C)c1ccc(C#N)cc1` (stereo not drawn), in assay [1], the concentration giving a half-maximal response (EC50) was more than 100 nM. Also, the values for the IC50 in assay [2] and in assay [3] were 5.5 nM and 4300 nM, respectively.

As to `Cn1cncc1C(OCc1c(-c2cc(Cl)cc(Cl)c2)cc(C#N)c(=O)n1C)c1ccc(C#N)c(-c2cccc(Cl)c2)c1` (stereo not drawn), the EC50 entry in assay [4] was “Not Active”. The half-maximal inhibitory concentration (IC50) came to 2 nM in assay [2] and 120 nM in assay [3].

With `Cn1c(COC(c2ccc(C#N)cc2)c2c[nH]cn2)c(-c2cccc(Cl)c2)cc(C#N)c1=O` (stereo not drawn), the EC50 result in assay [4] is listed as “Not Active”. The IC50 in assay [2] is 71 nM; in assay [7] it was “Not Active”.

On to `Cn1cncc1C(OCc1c(-c2cccc(Br)c2)cc(C#N)c(=O)n1C)c1ccc(C#N)cc1` (stereo not drawn), for which the half-maximal effective concentration (EC50) in assay [1] worked out at 2.1 nM. Moreover, the IC50 in assay [2] amounted to 0.51 nM; in assay [3] it was 3400 nM.

Source of the values: ChEMBL document CHEMBL1145881, “Pyridone-containing farnesyltransferase inhibitors: synthesis and biological evaluation” (Bioorg Med Chem Lett, 2003).
